± gives the expanded uncertainty stated by the source.
Details: Liquid, Vibrating tube method

CCCC[n+]1cccc(C)c1.O=S(=O)([N-]S(=O)(=O)C(F)(F)F)C(F)(F)F
Details | mass density [kg/m3]
278.15 K, 100 kPa | 1431.5 ± 0.7
278.15 K, 101.33 kPa | 1430.9 ± 0.5
278.15 K, 1000 kPa | 1432.1 ± 0.7
278.15 K, 10000 kPa | 1438.3 ± 0.8
278.15 K, 20000 kPa | 1444.9 ± 0.9
278.15 K, 40000 kPa | 1457.2 ± 1.1
278.15 K, 60000 kPa | 1468.5 ± 1.4
278.15 K, 80000 kPa | 1479.1 ± 1.7
278.15 K, 100000 kPa | 1488.9 ± 2.1
278.15 K, 120000 kPa | 1498.1 ± 2.6
279.15 K, 101.33 kPa | 1429.9 ± 0.5
280.15 K, 101.33 kPa | 1428.9 ± 0.5
281.15 K, 101.33 kPa | 1427.9 ± 0.5
282.15 K, 101.33 kPa | 1427 ± 0.5
283.15 K, 101.33 kPa | 1426 ± 0.5
284.15 K, 101.33 kPa | 1425 ± 0.5
285.15 K, 101.33 kPa | 1424 ± 0.5
286.15 K, 101.33 kPa | 1423.1 ± 0.5
287.15 K, 101.33 kPa | 1422.1 ± 0.5
288.15 K, 101.33 kPa | 1421.2 ± 0.5
289.15 K, 101.33 kPa | 1420.2 ± 0.5
290.15 K, 101.33 kPa | 1419.3 ± 0.5
291.15 K, 101.33 kPa | 1418.3 ± 0.5
292.15 K, 101.33 kPa | 1417.4 ± 0.5
293.15 K, 101.33 kPa | 1416.5 ± 0.5
294.15 K, 101.33 kPa | 1415.6 ± 0.5
295.15 K, 101.33 kPa | 1414.6 ± 0.5
296.15 K, 101.33 kPa | 1413.7 ± 0.5
297.15 K, 101.33 kPa | 1412.8 ± 0.5
298.15 K, 100 kPa | 1413.3 ± 0.7
298.15 K, 101.33 kPa | 1411.9 ± 0.5
298.15 K, 1000 kPa | 1414 ± 0.7
298.15 K, 10000 kPa | 1420.4 ± 0.8
298.15 K, 20000 kPa | 1427.3 ± 0.9
298.15 K, 40000 kPa | 1440.1 ± 1.1
298.15 K, 60000 kPa | 1452 ± 1.4
298.15 K, 80000 kPa | 1463 ± 1.7
298.15 K, 100000 kPa | 1473.5 ± 2.1
298.15 K, 120000 kPa | 1483.1 ± 2.5
299.15 K, 101.33 kPa | 1410.9 ± 0.5
300.15 K, 101.33 kPa | 1410 ± 0.5
301.15 K, 101.33 kPa | 1409.1 ± 0.5
302.15 K, 101.33 kPa | 1408.2 ± 0.5
303.15 K, 101.33 kPa | 1407.3 ± 0.5
304.15 K, 101.33 kPa | 1406.4 ± 0.5
305.15 K, 101.33 kPa | 1405.4 ± 0.5
306.15 K, 101.33 kPa | 1404.5 ± 0.5
307.15 K, 101.33 kPa | 1403.6 ± 0.5
308.15 K, 101.33 kPa | 1402.7 ± 0.5
309.15 K, 101.33 kPa | 1401.8 ± 0.5
310.15 K, 101.33 kPa | 1400.9 ± 0.5
311.15 K, 101.33 kPa | 1399.9 ± 0.5
312.15 K, 101.33 kPa | 1399 ± 0.5
313.15 K, 100 kPa | 1399.8 ± 0.7
313.15 K, 101.33 kPa | 1398.1 ± 0.5
313.15 K, 1000 kPa | 1400.5 ± 0.7
313.15 K, 10000 kPa | 1407.3 ± 0.8
313.15 K, 20000 kPa | 1414.5 ± 0.9
313.15 K, 40000 kPa | 1428 ± 1.1
313.15 K, 60000 kPa | 1440.3 ± 1.3
313.15 K, 80000 kPa | 1451.7 ± 1.6
313.15 K, 100000 kPa | 1462.4 ± 2
313.15 K, 120000 kPa | 1472.1 ± 2.4
314.15 K, 101.33 kPa | 1397.2 ± 0.5
315.15 K, 101.33 kPa | 1396.3 ± 0.5
316.15 K, 101.33 kPa | 1395.4 ± 0.5
317.15 K, 101.33 kPa | 1394.5 ± 0.5
318.15 K, 101.33 kPa | 1393.6 ± 0.5
319.15 K, 101.33 kPa | 1392.7 ± 0.5
320.15 K, 101.33 kPa | 1391.8 ± 0.5
321.15 K, 101.33 kPa | 1390.9 ± 0.5
322.15 K, 101.33 kPa | 1390 ± 0.5
323.15 K, 101.33 kPa | 1389.2 ± 0.5
324.15 K, 101.33 kPa | 1388.2 ± 0.5
325.15 K, 101.33 kPa | 1387.4 ± 0.5
326.15 K, 101.33 kPa | 1386.5 ± 0.5
327.15 K, 101.33 kPa | 1385.6 ± 0.5
328.15 K, 101.33 kPa | 1384.7 ± 0.5
329.15 K, 101.33 kPa | 1383.8 ± 0.5
330.15 K, 101.33 kPa | 1382.9 ± 0.5
331.15 K, 101.33 kPa | 1382.1 ± 0.5
332.15 K, 101.33 kPa | 1381.3 ± 0.5
333.15 K, 100 kPa | 1381.5 ± 0.7
333.15 K, 101.33 kPa | 1380.4 ± 0.5
333.15 K, 1000 kPa | 1382.2 ± 0.7
333.15 K, 10000 kPa | 1389.6 ± 0.8
333.15 K, 20000 kPa | 1397.2 ± 0.8
333.15 K, 40000 kPa | 1411.4 ± 1
333.15 K, 60000 kPa | 1424.4 ± 1.3
333.15 K, 80000 kPa | 1436.3 ± 1.6
333.15 K, 100000 kPa | 1447.5 ± 2
333.15 K, 120000 kPa | 1457.6 ± 2.4
334.15 K, 101.33 kPa | 1379.4 ± 0.5
335.15 K, 101.33 kPa | 1378.5 ± 0.5
336.15 K, 101.33 kPa | 1377.6 ± 0.5
337.15 K, 101.33 kPa | 1376.7 ± 0.5
338.15 K, 101.33 kPa | 1375.8 ± 0.5
339.15 K, 101.33 kPa | 1374.9 ± 0.5
340.15 K, 101.33 kPa | 1374.1 ± 0.5
341.15 K, 101.33 kPa | 1373.3 ± 0.5
342.15 K, 101.33 kPa | 1372.4 ± 0.5
343.15 K, 101.33 kPa | 1371.4 ± 0.5
344.15 K, 101.33 kPa | 1370.5 ± 0.5
345.15 K, 101.33 kPa | 1369.7 ± 0.5
346.15 K, 101.33 kPa | 1368.7 ± 0.5
347.15 K, 101.33 kPa | 1367.8 ± 0.5
348.15 K, 100 kPa | 1367.9 ± 0.7
348.15 K, 101.33 kPa | 1366.9 ± 0.5
348.15 K, 1000 kPa | 1368.7 ± 0.7
348.15 K, 10000 kPa | 1376.4 ± 0.8
348.15 K, 20000 kPa | 1384.4 ± 0.8
348.15 K, 40000 kPa | 1399.2 ± 1
348.15 K, 60000 kPa | 1412.7 ± 1.3
348.15 K, 80000 kPa | 1425 ± 1.6
348.15 K, 100000 kPa | 1436.5 ± 1.9
348.15 K, 120000 kPa | 1446.9 ± 2.3
349.15 K, 101.33 kPa | 1366 ± 0.5
350.15 K, 101.33 kPa | 1364.9 ± 0.5
351.15 K, 101.33 kPa | 1364 ± 0.5
352.15 K, 101.33 kPa | 1363 ± 0.5
353.15 K, 101.33 kPa | 1362.2 ± 0.5
354.15 K, 101.33 kPa | 1361.2 ± 0.5
355.15 K, 101.33 kPa | 1360.4 ± 0.5
356.15 K, 101.33 kPa | 1359.4 ± 0.5
357.15 K, 101.33 kPa | 1358.6 ± 0.5
358.15 K, 101.33 kPa | 1357.7 ± 0.5
359.15 K, 101.33 kPa | 1356.8 ± 0.5
360.15 K, 101.33 kPa | 1356 ± 0.5
361.15 K, 101.33 kPa | 1355.1 ± 0.5
362.15 K, 101.33 kPa | 1354.3 ± 0.5
363.15 K, 101.33 kPa | 1353.4 ± 0.5
364.15 K, 101.33 kPa | 1352.6 ± 0.5
365.15 K, 101.33 kPa | 1351.7 ± 0.5
366.15 K, 101.33 kPa | 1350.9 ± 0.5
367.15 K, 101.33 kPa | 1350 ± 0.5
368.15 K, 101.33 kPa | 1349.2 ± 0.5
369.15 K, 101.33 kPa | 1348.3 ± 0.5
370.15 K, 101.33 kPa | 1347.5 ± 0.5
371.15 K, 101.33 kPa | 1346.7 ± 0.5
372.15 K, 101.33 kPa | 1345.8 ± 0.5
373.15 K, 100 kPa | 1346.3 ± 5
373.15 K, 101.33 kPa | 1345 ± 0.5
373.15 K, 1000 kPa | 1346.5 ± 3
373.15 K, 10000 kPa | 1354.8 ± 3
373.15 K, 20000 kPa | 1363.4 ± 3
373.15 K, 40000 kPa | 1379.2 ± 3.1
373.15 K, 60000 kPa | 1393.5 ± 3.2
373.15 K, 80000 kPa | 1406.6 ± 3.3
373.15 K, 100000 kPa | 1418.7 ± 3.4
373.15 K, 120000 kPa | 1429.9 ± 3.6
398.15 K, 100 kPa | 1324.8 ± 5
398.15 K, 1000 kPa | 1324.6 ± 3
398.15 K, 10000 kPa | 1333.5 ± 3
398.15 K, 20000 kPa | 1342.9 ± 3
398.15 K, 40000 kPa | 1359.8 ± 3.1
398.15 K, 60000 kPa | 1374.9 ± 3.2
398.15 K, 80000 kPa | 1388.7 ± 3.3
398.15 K, 100000 kPa | 1401.4 ± 3.4
398.15 K, 120000 kPa | 1413.4 ± 3.6

From the NIST ThermoML archive (doi:10.1016/j.jct.2017.10.012)
